Test results published in patent publication US5821363A, “Antineoplastic use and pharmaceutical compositions containing them” (priority 1996, dated 1998).
≈ marks a conversion by molar mass, not a printed value. Like-named read-outs stand apart in the source and are kept apart here.

How the values were obtained:
Assay type in all cases: cell-based
[1] = tested on: L1210 mouse leukemia carcinoma cells; assay: cytotoxicity / inhibition of cell proliferation in L1210 leukemia cells
KB-V1 = assay: killing of multidrug resistant KB-V1 cells; details: for IC50: Homo sapiens
KB-3-1 = assay: killing of drug sensitive (non-MDR) KB-3-1 cells; details: Homo sapiens
[2] = tested on: A2780 human ovarian carcinoma; assay: cytotoxicity in A2780 human ovarian carcinoma cells; details: Homo sapiens, A2780, read-out: A2780 (IC50 μg/ml)
[3] = L1210, read-out: L1210 (IC50 μg/ml)
[4] = KB-V1 multidrug resistant cells, Table III, read-out: KB-V1 (IC50; nM)
[5] = ratio of IC50 KB-V1 to IC50 KB-3-1
[6] = KB-3-1 drug sensitive cells, Table III, read-out: KB-3-1 (IC50; nM)
[7] = L1210 leukemia, Table I, 50% inhibition of cell proliferation vs untreated control, read-out: L1210 (IC50 μg/ml)
[8] = KB-V1, read-out: KB-V1 (IC50; nM)
[9] = KB 3-1, read-out: KB-3-1 (IC50; nM)

Question: Which IC50 [1, 3] does the source give for `CC[Si](CC)(CC)O[C@H]1C[C@H]2OC[C@@]2(OC(C)=O)[C@H]2[C@H](OC(=O)c3ccccc3)[C@]3(O)CC(OC(=O)[C@H](O)[C@@H](NC(=O)OC(C)(C)C)c4ccccc4)=C(C)[C@H]([C@@H](OC(C)=O)C(=O)[C@]12C)C3(C)C` [Compound 6, 7-TES-13-(N-Boc-β-phenylisoserinyl)-Δ^12,13-iso-baccatin III] here?
Answer: > 0.1 µg/mL

Question: `CC(=O)O[C@H]1C(=O)[C@@]2(C)[C@H]([C@H](OC(=O)c3ccccc3)[C@]3(O)CC(OC(=O)[C@H](O)[C@@H](NC(=O)OC(C)(C)C)c4ccccc4)=C(C)[C@H]1C3(C)C)[C@]1(OC(C)=O)CO[C@@H]1C[C@@H]2O` [Compound 7, 13-(N-Boc-β-phenylisoserinyl)-Δ^12,13-iso-baccatin III] was tested. Which IC50 (KB-V1; [4]) did it give?
Answer: 40 nM

Question: What about the “Ratio: KBV-1/KB-3-1” value (KB-V1; [5]) of the same compound?
Answer: 228

Question: And the IC50 (KB-3-1; [6])?
Answer: 0.2 nM

Question: What about the IC50 [1, 7] of the same compound?
Answer: 0.0046 µg/mL (≈ 5.41 nM)

Question: Which IC50 [1, 7] does the source give for `CC(=O)O[C@@]12CO[C@@H]1C[C@H](O)[C@@]1(C)C(=O)[C@H](O)[C@H]3C(C)=C(OC(=O)[C@H](O)[C@@H](NC(=O)OC(C)(C)C)c4ccccc4)C[C@@](O)([C@@H](OC(=O)c4ccccc4)[C@H]21)C3(C)C` [Compound 8, 10-deacetyl-13-(N-Boc-β-phenylisoserinyl)-Δ^12,13-iso-baccatin III] here?
Answer: 0.0059 µg/mL (≈ 7.3 nM)

Question: For `CC(=O)O[C@H]1C(=O)[C@]2(C)[C@@H](OC(=O)OCC(Cl)(Cl)Cl)C[C@H]3OC[C@@]3(OC(C)=O)[C@H]2[C@H](OC(=O)c2ccccc2)[C@]2(O)CC(OC(=O)[C@H](O)[C@@H](NC(=O)OC(C)(C)C)c3ccccc3)=C(C)[C@H]1C2(C)C` [Compound 12, 7-Troc-13-(N-Boc-β-phenylisoserinyl)-Δ^12,13-iso-baccatin III], which IC50 [1, 3] is on record?
Answer: 0.011 µg/mL (≈ 10.7 nM)

Question: For `CC(=O)O[C@H]1C(=O)[C@]23C[C@H]2C[C@H]2OC[C@@]2(OC(C)=O)[C@H]3[C@H](OC(=O)c2ccccc2)[C@]2(O)CC(OC(=O)[C@H](OC(=O)OCC(Cl)(Cl)Cl)[C@@H](NC(=O)OC(C)(C)C)c3ccccc3)=C(C)[C@H]1C2(C)C` [Compound 14, 2'-Troc-13-(N-Boc-β-phenylisoserinyl)-7-deoxy-7b,8b-methano-Δ^12,13-iso-baccatin III], which IC50 [1, 3] is on record?
Answer: 0.012 µg/mL (≈ 11.9 nM)

Question: For `CC(=O)O[C@H]1C(=O)[C@]2(C)C=C[C@H]3OC[C@@]3(OC(C)=O)[C@H]2[C@H](OC(=O)c2ccccc2)[C@]2(O)CC(OC(=O)[C@H](OC(=O)OCC(Cl)(Cl)Cl)[C@@H](NC(=O)OC(C)(C)C)c3ccccc3)=C(C)[C@H]1C2(C)C` [Compound 15, 2'-Troc-13-(N-Boc-β-phenylisoserinyl)-7-deoxy-Δ^6,7 -Δ^12,13-iso-baccatin III], which IC50 [1, 3] is on record?
Answer: 0.0066 µg/mL (≈ 6.55 nM)

Question: For `CC(=O)O[C@H]1C(=O)[C@]2(C)C(F)C[C@H]3OC[C@@]3(OC(C)=O)[C@H]2[C@H](OC(=O)c2ccccc2)[C@]2(O)CC(OC(=O)[C@H](O)[C@@H](NC(=O)OC(C)(C)C)c3ccccc3)=C(C)[C@H]1C2(C)C` (stereo partly drawn) [Compound 16, 13-(N-Boc-β-phenylisoserinyl)-7-deoxy-7-fluoro-Δ^12,13-iso-baccatin III], which IC50 [1, 3] is on record?
Answer: 0.0029 µg/mL (≈ 3.4 nM)

Question: `CC(=O)O[C@H]1C(=O)[C@]23C[C@H]2C[C@H]2OC[C@@]2(OC(C)=O)[C@H]3[C@H](OC(=O)c2ccccc2)[C@]2(O)CC(OC(=O)[C@H](O)[C@@H](NC(=O)OC(C)(C)C)c3ccccc3)=C(C)[C@H]1C2(C)C` [Compound 17, 13-(N-Boc-β-phenylisoserinyl)-7-deoxy-7β,8β-methano-Δ^12,13-iso-baccatin III] was tested. Which IC50 (KB-V1; [8]) did it give?
Answer: 13 nM

Question: What about the “Ratio: KBV-1/KB-3-1” value (KB-V1; human, kb-v1 vs kb-3-1 cells) of the same compound?
Answer: 61

Question: What about the IC50 (KB-3-1; [9]) of the same compound?
Answer: 0.22 nM

Question: What about the IC90 ([1]; L1210, read-out: IC90 (90% growth inhibitory concentration)) of the same compound?
Answer: 17 ng/mL (≈ 20.4 nM)

Question: And the IC50 [1, 3]?
Answer: 0.0018 µg/mL (≈ 2.16 nM)

Question: Which IC50 (KB-V1; [8]) does the source give for `CC(=O)O[C@H]1C(=O)[C@]2(C)C=C[C@H]3OC[C@@]3(OC(C)=O)[C@H]2[C@H](OC(=O)c2ccccc2)[C@]2(O)CC(OC(=O)[C@H](O)[C@@H](NC(=O)OC(C)(C)C)c3ccccc3)=C(C)[C@H]1C2(C)C` [Compound 18, 13-(N-Boc-β-phenylisoserinyl)-7-deoxy-Δ^6,7 -Δ^12,13-iso-baccatin III] here?
Answer: 6.2 nM

Question: What about the “Ratio: KBV-1/KB-3-1” value (KB-V1; human, kb-v1 vs kb-3-1 cells) of the same compound?
Answer: 34

Question: And the IC50 (KB-3-1; [9])?
Answer: 0.2 nM

Question: What about the IC50 [1, 3] of the same compound?
Answer: 0.0022 µg/mL (≈ 2.64 nM)

Question: For `CC[Si](CC)(CC)O[C@H]1C[C@H]2OC[C@@]2(OC(C)=O)[C@H]2[C@H](OC(=O)c3ccccc3)[C@]3(O)CC(OC(=O)[C@H](O)[C@@H](NC(=O)NC(C)(C)C)c4ccccc4)=C(C)[C@H]([C@@H](OC(C)=O)C(=O)[C@]12C)C3(C)C` [Compound 32a, 7-TES-13-(N-(t-butylaminocarbonyl)-β-phenylisoserinyl)-Δ^12,13-iso-baccatin III], which IC50 [1, 3] is on record?
Answer: 0.07 µg/mL (≈ 72.7 nM)

Question: Which results are given for `CC(=O)O[C@H]1C(=O)[C@@]2(C)[C@H]([C@H](OC(=O)c3ccccc3)[C@]3(O)CC(OC(=O)[C@H](O)[C@@H](NC(=O)NC(C)(C)C)c4ccccc4)=C(C)[C@H]1C3(C)C)[C@]1(OC(C)=O)CO[C@@H]1C[C@@H]2O` [Compound 32b, 13-(N-(t-butylaminocarbonyl)-β-phenylisoserinyl)-Δ^12,13-iso-baccatin III]?
Answer: IC50 (KB-V1; [4]): 1100 nM; Ratio: KBV-1/KB-3-1 (KB-V1; [5]): 17,650; IC50 (KB-3-1; [6]): 0.081 nM; IC50 [1, 7]: 0.0053 µg/mL (≈ 6.24 nM)

Question: Which IC50 (KB-V1; [4]) does the source give for `CC(=O)O[C@H]1C(=O)[C@]23C[C@H]2C[C@H]2OC[C@@]2(OC(C)=O)[C@H]3[C@H](OC(=O)c2ccccc2)[C@]2(O)CC(OC(=O)[C@H](O)[C@@H](NC(=O)NC(C)(C)C)c3ccccc3)=C(C)[C@H]1C2(C)C` [Compound 36, 13-(N-(t-butylaminocarbonyl)-β-phenylisoserinyl)-7-deoxy-7β,8β-methano-Δ^12,13-iso-baccatin III] here?
Answer: 360 nM

Question: What about the “Ratio: KBV-1/KB-3-1” value (KB-V1; [5]) of the same compound?
Answer: 11,400

Question: What about the IC50 (KB-3-1; [6]) of the same compound?
Answer: 0.05 nM

Question: For `CC(=O)O[C@H]1C(=O)[C@]2(C)C=C[C@H]3OC[C@@]3(OC(C)=O)[C@H]2[C@H](OC(=O)c2ccccc2)[C@]2(O)CC(OC(=O)[C@H](O)[C@@H](NC(=O)NC(C)(C)C)c3ccccc3)=C(C)[C@H]1C2(C)C` [Compound 38, 13-(N-(t-butylaminocarbonyl)-β-phenylisoserinyl)-7-deoxy-Δ^6,7 -Δ^12,13-iso-baccatin III], which IC50 (KB-V1; [8]) is on record?
Answer: 360 nM

Question: And the “Ratio: KBV-1/KB-3-1” value (KB-V1; human, kb-v1 vs kb-3-1 cells)?
Answer: 4,800

Question: What about the IC50 (KB-3-1; [9]) of the same compound?
Answer: 0.078 nM

Question: `CCOCO[C@H]1C[C@H]2OC[C@@]2(OC(C)=O)[C@H]2[C@H](OC(=O)c3ccccc3)[C@]3(O)CC(OC(=O)[C@H](O)[C@@H](NC(=O)OC(C)(C)C)c4ccccc4)=C(C)[C@H]([C@@H](OC(C)=O)C(=O)[C@]12C)C3(C)C` [Compound 41, 7-(O-ethoxymethyl)-13-(N-Boc-β-phenylisoserinyl)-Δ^12,13-iso-baccatin III] was tested. Which IC50 (KB-V1; [4]) did it give?
Answer: 0.77 nM

Question: And the “Ratio: KBV-1/KB-3-1” value (KB-V1; [5])?
Answer: 170

Question: And the IC50 (KB-3-1; [6])?
Answer: 0.011 nM

Question: And the IC50 [1, 7]?
Answer: 0.0007 µg/mL (≈ 0.771 nM)

Question: For `CCOCO[C@H]1C[C@H]2OC[C@@]2(OC(C)=O)[C@H]2[C@H](OC(=O)c3ccccc3)[C@]3(O)CC(OC(=O)[C@H](O)[C@@H](NC(=O)NC(C)(C)C)c4ccccc4)=C(C)[C@H]([C@@H](OC(C)=O)C(=O)[C@]12C)C3(C)C` [Compound 43, 7-(O-ethoxymethyl)-13-(N-(t-butylaminocarbonyl)-β-phenylisoserinyl)-Δ^12,13-iso-baccatin III], which IC50 (KB-V1; [4]) is on record?
Answer: 120 nM

Question: What about the “Ratio: KBV-1/KB-3-1” value (KB-V1; [5]) of the same compound?
Answer: 2.5 × 10^5

Question: What about the IC50 [1, 7] of the same compound?
Answer: 0.0014 µg/mL (≈ 1.54 nM)

Question: For `COCO[C@H]1C[C@H]2OC[C@@]2(OC(C)=O)[C@H]2[C@H](OC(=O)c3ccccc3)[C@]3(O)CC(OC(=O)[C@H](O)[C@@H](NC(=O)OCc4ccccc4)c4ccccc4)=C(C)[C@H]([C@@H](OC(C)=O)C(=O)[C@]12C)C3(C)C` [Compound 64, 7-(O-methoxymethyl)-13-(N-Cbz-β-phenylisoserinyl)-Δ^12,13-iso-baccatin III], which IC50 [2] is on record?
Answer: 0.0029 µg/mL (≈ 3.13 nM)
